# Measured values published in patent EP3587416A1, “2-OXOPIPERIDIN-3-YL DERIVATIVES AND USE THEREOF” (Institut Univ. de Ciència i Tecnologia, S.A., priority 2018, dated 2020).
# Where “and” joins values, the source holds several entries; their conditions need not be identical. Equal entries are not always repeated.
# Experiments:
# [1] = target: T1, CNA-CF-PRIEIT interaction (Homo sapiens, UniProt Q08209); assay: Fluorescence polarization assay, disruption of the CNA-CF-PRIEIT interaction (Example 20); type: binding; conditions: 50 µM compound, 5 µM human CNAα, 30 nM CF-PRIEIT; mean of triplicates
# T1 construct: human CNAα (amino acids 2-347)
# Protocol: Compounds were analyzed for their potential to disrupt the interaction between the human catalytic domain of the calcineurin Aα subunit (CNAα) and the NFATc2-derived PRIEIT peptide. For this purpose we used Flourescence Polarization (FP) technique described in Mulero et al, 2009 (J. Biol. Chem.284:9394-9401). Briefly, to identify disruptors of the CNA-PRIEIT interaction, 5 µM of human CNAα (amino acids 2-347) is preincubated with 50 µM of each hit compound in OptiPlate black 384-well flat-bottom plates (PerkinElmer Life Sciences) for 15 min at room temperature. Then, carboxyfluorescein (CF)-tagged NFATc2-derived PRIEIT peptide (CF-PRIEIT, 30 nM) is added to each well and incubated for 15 more min at room temperature. Each compound has been analyzed once with triplicates. FP measurements were performed using a Victor™ X5 2030 Multilabel Reader (PerkinElmer Life Sciences) with excitation and emission wavelengths of 485 nm and 535 nm, respectively. The fluorescent polarization of the free CF-peptide was considered 0% binding and the binding of CNA to the CF-PRIEIT peptide as 100% binding. Accordingly, the capacity of the compound to disrupt CNA-CF-PRIEIT interaction was measured. None of them displace the CF-PRIEIT peptide from the CNA-PRIEIT interaction (Table 3). Interaction disruption values are less than 30%. […] Data is given as mean ± standard deviation (SD).
# [2] = target: T2, CN-PRIEIT interaction (Homo sapiens, UniProt Q08209); assay: Fluorescence polarization competition binding assay, CF-SPRIEIT bound to CNA (Example 21); conditions: 6 µM CNA, 30 nM CF-SPRIEIT, no competitor = 100%
# T2 construct: recombinant human CNAD (amino acids 2-347) fused to glutathione S-transferase; GST (glutathione S-transferase); made in house; host or cells: bacteria
# Protocol: INK compounds were analyzed for their ability to disrupt CN-PRIEIT interaction using a fluorescence polarization assay. This biochemical assay requires recombinant human CNAD (amino acids 2-347) fused to glutathione S-transferase (GST-CN), which was expressed and purified from bacteria, and a NFATc2-derived PRIEIT peptide labeled with carboxyfluorescein (CF), CF-PRIEIT. Competition binding assays of INK compounds on the interaction of CN with the CF-NFATc2-derived PRIEIT peptide were performed by fluorescence polarization. Briefly, 6 µM of CNA was incubated in the absence (positive control of interaction) or in the presence of 50 µM or 10 µM of competitor compound prior to addition of 30 nM of CF-SPRIEIT peptide. VIVIT peptide was included as positive control of interaction disruption ability. Data is represented as mean percentage of CF-SPRIEIT bound to CNA (± SEM) of 2 experiments performed in triplicates. Signal in the absence of competing peptide was considered as 100% of CF-SPRIEIT bound to CNA. Table 4: Functional effect of pair related structure compounds on NFATc activation
# [3] = system: NFATc activation in HEK 293T cells; assay: 3xNFAT-luc dual-luciferase reporter assay of NFATc activation; type: cell-based, human; conditions: Io/PMA/CaCl2 stimulation, inhibition at least at 100, 50 and 20 µM (Figure 1)
# Protocol: • Figure 1. Effect of INK compounds on NFATc activation in HEK 293T cells. Cells were transfected with 3xNFAT-luc reporter gene, treated with each compound at 0 µM / 0.02 µM / 0.2 µM / 1 µM / 5 µM/ 20 µM / 50 µM /100 µM (increasing concentrations of the compounds are represented in the graph from left to right) for 2 hours. Then, cells were calcium stimulated with ionomycin (1 µM), PMA (20 nM) and CaCl2 (10 mM) for 4 hours and luciferase activity was analyzed following the dual luciferase reporter assay manufacters' indications and a luminometer (Victor X5 plate reader form Perin-Elmer). […] CN activity towards the RII peptide was analyzed in the absence (positive control of CN activity) or in the presence of each compound at 50 µM, or of 50 µM of LxVP peptide (positive control of CN activity inhibition). […]
# To determine the ffect of INK compounds on NFATc activation, HEK 293T cells were transfected with 3xNFAT-luc reporter gene and Renilla-luc plasmid as control of gene transfection. […] Then, cells were treated with compounds of formula (I) at several concentrations for 2 hours and light units analyzed following manufacture's protocol of the dual-luciferase reporter assay system (Figure 1, Functional effect of pair related structure compounds on NFATc activation).
# T2 sequence (Q08209 2-347): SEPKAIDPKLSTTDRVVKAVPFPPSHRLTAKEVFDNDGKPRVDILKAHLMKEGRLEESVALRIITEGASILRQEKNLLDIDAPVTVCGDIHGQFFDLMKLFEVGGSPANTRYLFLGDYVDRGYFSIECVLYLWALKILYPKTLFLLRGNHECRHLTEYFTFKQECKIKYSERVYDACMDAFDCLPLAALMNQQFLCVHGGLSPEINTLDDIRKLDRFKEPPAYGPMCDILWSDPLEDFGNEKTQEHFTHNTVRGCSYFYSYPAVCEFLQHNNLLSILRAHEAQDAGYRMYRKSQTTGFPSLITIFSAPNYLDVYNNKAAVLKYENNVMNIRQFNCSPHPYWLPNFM
# T1 sequence (Q08209 2-347): as above
inhibition at 50 µM [1] [%],Structure (SMILES),other results
16.7,"CCOC(=O)CN(C1CCCN(c2ccc(-c3ccccc3OC)cc2F)C1=O)S(=O)(=O)c1ccc2c(c1)OCO2 (stereo not shown) [IUCT-0466, Ethyl N-(benzo[d][1,3]dioxol-5-ylsulfonyl)-N-(1-(3-fluoro-2'-methoxy-[1,1'-biphenyl]-4-yl)-2-oxopiperidin-3-yl)glycinate]",–
25.8,"COc1ccccc1-c1ccc(N2CCCC(NS(=O)(=O)c3cc4ccccc4o3)C2=O)c(F)c1 (stereo not shown) [IUCT-0464, N-(1-(3-fluoro-2'-methoxy-[1,1'-biphenyl]-4-yl)-2-oxopiperidin-3-yl)benzofuran-2-sulfonamide]","Relative interaction (%) Mean ([2]; 10 µM competitor): 93,8%; Relative interaction (%) Sample at 10 µM ([2]; 10 µM competitor, single replicate): 96,8% and 92,3% and 92,4%; Relative interaction (%) Mean ([2]; 50 µM competitor): 83,2%; Relative interaction (%) Sample at 50 µM ([2]; 50 µM competitor, single replicate): 79,0% and 87,7% and 82,9%; NFATc activation [3]: strongly inhibits"
13.8,"COc1ccccc1-c1ccc(N2CCCC(N(CC#N)S(=O)(=O)c3cc(Cl)c(Cl)s3)C2=O)c(F)c1 (stereo not shown) [IUCT-0465, 4,5-Dichloro-N-(cyanomethyl)-N-(1-(3-fluoro-2'-methoxy-[1,1'-biphenyl]-4-yl)-2-oxopiperidin-3-yl)thiophene-2-sulfonamide]",–
11.1,"COc1ccccc1-c1ccc(N2CCCC(NS(=O)(=O)c3c(C)noc3C)C2=O)c(F)c1 (stereo not shown) [IUCT-0461, N-(1-(3-fluoro-2'-methoxy-[1,1'-biphenyl]-4-yl)-2-oxopiperidin-3-yl)-3,5-dimethylisoxazole-4-sulfonamide]",–
25.7,"COc1ccccc1-c1ccc(N2CCCC(NS(=O)(=O)c3ccc4c(c3)OCO4)C2=O)c(F)c1 (stereo not shown) [IUCT-0462, N-(1-(3-fluoro-2'-methoxy-[1,1'-biphenyl]-4-yl)-2-oxopiperidin-3-yl)benzo[d][1,3]dioxole-5-sulfonamide]",–
29.3,"CCOC(=O)CN(C1CCCN(c2ccc(-c3ccccc3OC)cc2F)C1=O)S(=O)(=O)c1ccc(-c2ccccn2)s1 (stereo not shown) [IUCT-0469, Ethyl N-(1-(3-fluoro-2'-methoxy-[1,1'-biphenyl]-4-yl)-2-oxopiperidin-3-yl)-N-((5-(pyridin-2-yl)thiophen-2-yl)sulfonyl)glycinate]",–
15.8,"COc1ccccc1-c1ccc(N2CCCC(NS(=O)(=O)c3ccc(-c4ccccn4)s3)C2=O)c(F)c1 (stereo not shown) [IUCT-0463, N-(1-(3-fluoro-2'-methoxy-[1,1'-biphenyl]-4-yl)-2-oxopiperidin-3-yl)-5-(pyridin-2-yl)thiophene-2-sulfonamide]",–
6.53,"COc1ccccc1-c1ccc(N2CCCC(NS(=O)(=O)c3cc(Cl)c(Cl)s3)C2=O)c(F)c1 (stereo not shown) [IUCT-0460, 4,5-Dichloro-N-(1-(3-fluoro-2'-methoxy-[1,1'-biphenyl]-4-yl)-2-oxopiperidin-3-yl)thiophene-2-sulfonamide]",–
